“Also recorded” adds a separate entry of the source.
Key:
Assay type in all cases: biochemical
ABHD4 = target: T1, ABHD4 (Homo sapiens, UniProt Q8TB40); experiment: Gel-based competitive ABPP, recombinant enzyme in transfected HEK293T cell lysates; parameters: myc-his; expressed in transfected cells; host or cells: HEK293T, transient transfection, pcDNA3.1/myc-his; lysate used in vitro; details: recombinant, combined HEK293T lysates, gel-based ABPP
T1 sequence (Q8TB40 1-342): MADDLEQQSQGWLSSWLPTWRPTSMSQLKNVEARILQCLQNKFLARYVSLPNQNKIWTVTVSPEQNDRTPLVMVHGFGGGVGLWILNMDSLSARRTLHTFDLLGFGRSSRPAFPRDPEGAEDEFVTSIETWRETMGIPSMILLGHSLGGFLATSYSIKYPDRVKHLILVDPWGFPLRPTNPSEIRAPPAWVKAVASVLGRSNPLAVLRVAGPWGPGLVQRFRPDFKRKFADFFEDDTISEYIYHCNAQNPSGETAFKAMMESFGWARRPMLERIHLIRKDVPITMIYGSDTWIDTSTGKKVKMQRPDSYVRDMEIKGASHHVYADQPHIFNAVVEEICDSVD
Method: HEK293T cells were seeded at 2×10^5 per well on 6 well plates and grown for 48 h. They were then transfected with mABHD3 (pCMV-Sport6), hABHD4 (pcDNA3.1/myc-his), hPPT1 (pCMV6-XL5), or hPPT1 S115A (pCMV6-XL5), by incubating 0.5 μg of DNA with 3 μL of PEI MAX (1 mg/mL, Polysciences, Inc) in serum-free DMEM for 30 min, then adding them to cells. After 48 h cells were either treated with compound in situ, as described above, or harvested for in vitro studies. The […] PPT1 mutation was introduced using QuikChange II Site Directed Mutagenesis Kit (Agilent) with the following primers: […]
Human ABHD3 and ABHD4 were recombinantly expressed by transient transfection in HEK293T cells, and the cell lysates were combined to provide a convenient assay for monitor inhibition of both enzymes by gel-based ABPP (see FIG. 8A). […]

[1] = system: FP-sensitive SHs in the mouse brain membrane proteome; experiment: Gel-based competitive ABPP in vitro, mouse brain membrane proteome, anti-targets; details: for Anti-target(s) 0.1 μM: SHs with at least 50% inhibition at 0.1 μM compound; for Anti-target(s) 1 μM: SHs with at least 50% inhibition at 1 μM compound; for Anti-target(s) 10 μM: SHs with at least 50% inhibition at 10 μM compound; for Anti-target(s) 100 μM: SHs with at least 50% inhibition at 100 μM compound
Method: (§1) Assay Overview: The purpose of this assay was to determine whether test compounds can inhibit LYPLA1 and LYPLA2 in a complex proteomic lysate and to assess anti-target inhibition using a competitive activity-based proteomic profiling (ABPP) assay. In this assay, a complex proteome endogenously expressing LYPLA1/2 was incubated with test compound followed by reaction with a rhodamine-conjugated fluorophosphonate (FP-Rh) serine-hydrolase specific activity-based probe. The reaction products were separated by SDS-PAGE and visualized in-gel using a flatbed fluorescence scanner. The percentage activity remaining was determined by measuring the integrated optical density of the bands. […] Percent inhibition was calculated relative to a DMSO (no compound) control.
(§2) Protocol Summary: Mouse brain membrane proteome (50 μL reaction volume, 1 mg/mL in DPBS) was treated with 0.1-100 μM test compound (1 μL of a 50× stock in DMSO) for 30 minutes at 37° C. FP-Rh (1 μL of 50× stock in DMSO, Thermo #88318) was added to a final concentration of 2 μM. The reactions were incubated for 30 minutes at 25° C., quenched with 16 μL 4×SDS-PAGE loading buffer (reducing), separated by SDS-PAGE and visualized by in-gel fluorescent scanning. The percentage activity remaining was determined by measuring the integrated optical density of the bands relative to a DMSO-only (no compound) control. Assay Cutoff: Compounds with ≥50% inhibition of targets at 1 μM test compound concentration were considered active.
(§3) N-Hydroxy bicyclic hydantoin carbamates (Compounds 1-20) listed in Table 1 were subjected to gel-based competitive ABPP screening to assess SH reactivity against more than 20 FP-sensitive SHs visible by 1D SDS-PAGE separation and fluorescent detection in the mouse brain proteome (see FIG. 1). […] Compound treatment ([…], 30 minutes) was followed by labeling with SH-specific ABPP probe FP-Rh (2 μM, 30 minutes), 1D-SDS-PAGE, and in-gel fluorescent visualization of FP-labeled proteins. Assignment of LYPLA1/2 bands was based on correlation of molecular weights, expression and inhibition profiles with LC-MS/MS data and recombinant enzyme expression. Proteins were listed as anti-targets if at least 50% inhibition was observed as quantified relative to the DMSO control.
(§4) Compounds 1-20 were subjected to gel-based competitive ABPP profiling to assess potency and selectivity against several dozen FP-sensitive SHs in the mouse brain membrane proteome, which endogenously expresses LYPLA1 and LYPLA2, as well a diversity of potential SH anti-targets. Compounds were tested at 100 μM, 10 μM, 1 μM, and/or 0.1 μM compound concentration.

LYPLA1 = target: T2, LYPLA1 (Mus musculus, UniProt P97823); experiment: Gel-based competitive ABPP in vitro, mouse brain membrane proteome; details: for inhibition at 0.1 µM: 0.1 μM compound, read-out: LYPLA1 % INH 0.1 μM; for inhibition at 0.1 µM / inhibition at 1 µM / inhibition at 10 µM / inhibition at 100 µM: 30 min, one replicate; for inhibition at 1 µM: 1 μM compound, read-out: LYPLA1 % INH 1 μM; for inhibition at 10 µM: 10 μM compound, read-out: LYPLA1 % INH 10 μM; for inhibition at 100 µM: 100 μM compound, read-out: LYPLA1 % INH 100 μM; for LYPLA1 in vitro enzyme activity, % @ 20 μM: mouse brain (mem) proteome
T2 construct: a complex proteome endogenously expressing LYPLA1/2 was incubated with test compound; from tissue; host or cells: mouse brain, membrane fraction
Method: as §1, §2, §3, §4

LYPLA2 = target: T3, LYPLA2 (Mus musculus, UniProt Q9WTL7); experiment: as above; details: for inhibition at 0.1 µM: 0.1 μM compound, read-out: LYPLA2 % INH 0.1 μM; for inhibition at 0.1 µM / inhibition at 1 µM / inhibition at 10 µM / inhibition at 100 µM: 30 min, one replicate; for inhibition at 1 µM: 1 μM compound, read-out: LYPLA2 % INH 1 μM; for inhibition at 10 µM: 10 μM compound, read-out: LYPLA2 % INH 10 μM; for inhibition at 100 µM: 100 μM compound, read-out: LYPLA2 % INH 100 μM; for LYPLA2 in vitro enzyme activity, % @ 20 μM: mouse brain (mem) proteome
T3 construct: a complex proteome endogenously expressing LYPLA1/2 was incubated with test compound; from tissue; host or cells: mouse brain, membrane fraction
Method: as §1, §2, §3, §4

ABHD6 = target: T4, ABHD6 (Mus musculus, UniProt Q8R2Y0); experiment: as above; details: for ABHD6 in vitro enzyme activity, % @ 20 μM: mouse brain (mem) proteome
T4 construct: from tissue; host or cells: mouse brain, membrane fraction
T4 sequence (Q8R2Y0 1-336): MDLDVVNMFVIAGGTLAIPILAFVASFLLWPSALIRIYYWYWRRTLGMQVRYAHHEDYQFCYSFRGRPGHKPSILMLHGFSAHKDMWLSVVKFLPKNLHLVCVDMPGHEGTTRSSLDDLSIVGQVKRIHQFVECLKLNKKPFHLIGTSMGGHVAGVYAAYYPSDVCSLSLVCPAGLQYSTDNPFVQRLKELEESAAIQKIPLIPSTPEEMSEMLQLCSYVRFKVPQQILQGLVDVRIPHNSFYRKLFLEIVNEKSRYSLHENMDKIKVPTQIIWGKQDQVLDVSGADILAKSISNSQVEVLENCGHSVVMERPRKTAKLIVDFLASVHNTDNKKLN
Method: as §1, §2
Assay Overview: The purpose of this assay was to determine IC50 values of powder samples of test compounds for enzyme of interest activity, and anti-targets in a complex proteomic lysate using a gel-based competitive ABPP assay. In this assay, a complex proteome was incubated with test compound followed by reaction with FP-Rh and SDS-PAGE analysis as described above.
Protocol Summary: Soluble HeLa cell proteome (50 μL reaction volume, 1 mg/mL in DPBS) or mouse brain membrane proteome (50 μL reaction volume, 1 mg/mL in DPBS) was treated with varying concentrations of test compound (1 μL of a 50× stock in DMSO) for 30 minutes at 37° C. FP-Rh (1 μL of 50× stock in DMSO) was added to a final concentration of 2 μM. The reaction was incubated for 30 minutes at 25° C., quenched with 16 μL 4×SDS-PAGE loading buffer (reducing), separated by SDS-PAGE and visualized by in-gel fluorescent scanning. The percentage activity remaining was determined by measuring the integrated optical density of the enzymes of interest, and anti-target bands relative to a DMSO-only (no compound) control. IC50 values were determined from dose-response curves from three replicates at each inhibitor concentration: 1, 10, 100, 1000, 10000 nM and 0.01, 0.1, 1, 10, 100, 1000, 10000, 50000, and 100000 nM.

T2 sequence (P97823 whole entry): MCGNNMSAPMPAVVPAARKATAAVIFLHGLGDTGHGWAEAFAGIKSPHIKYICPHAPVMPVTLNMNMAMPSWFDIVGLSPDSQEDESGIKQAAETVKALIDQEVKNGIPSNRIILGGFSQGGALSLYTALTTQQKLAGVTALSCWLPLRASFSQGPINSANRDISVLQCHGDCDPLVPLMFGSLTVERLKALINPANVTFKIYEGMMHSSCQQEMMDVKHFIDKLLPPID
T3 sequence (Q9WTL7 whole entry): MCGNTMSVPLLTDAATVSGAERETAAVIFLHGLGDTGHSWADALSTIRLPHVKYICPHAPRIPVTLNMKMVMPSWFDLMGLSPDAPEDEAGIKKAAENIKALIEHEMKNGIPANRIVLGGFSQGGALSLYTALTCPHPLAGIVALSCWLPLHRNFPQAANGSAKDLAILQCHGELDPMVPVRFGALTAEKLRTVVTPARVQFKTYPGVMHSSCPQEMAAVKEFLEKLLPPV

| inhibition at 0.1 µM (LYPLA1) [%] | inhibition at 1 µM (LYPLA1) [%] | inhibition at 10 µM (LYPLA1) [%] | inhibition at 100 µM (LYPLA1) [%] | inhibition at 0.1 µM (LYPLA2) [%] | inhibition at 1 µM (LYPLA2) [%] | inhibition at 10 µM (LYPLA2) [%] | inhibition at 100 µM (LYPLA2) [%] | LYPLA1 in vitro enzyme activity, % @ 20 μM (LYPLA1) [% @] | LYPLA2 in vitro enzyme activity, % @ 20 μM (LYPLA2) [% @] | ABHD6 in vitro enzyme activity, % @ 20 μM (ABHD6) [% @] | potency and selectivity for ABHD6, concentration-dependent profiling (ABHD6; mouse brain membrane SHs, FIG. 7B) | SMILES | preference ABHD4 over ABHD3 (ABHD4) | Anti-target(s) 0.1 μM [1] | Anti-target(s) 1 μM [1] | Anti-target(s) 10 μM [1] | Anti-target(s) 100 μM [1] |
| --- | --- | --- | --- | --- | --- | --- | --- | --- | --- | --- | --- | --- | --- | --- | --- | --- | --- |
| 0 | 10 | 75 | 90 | 0 | 10 | 75 | 90 |  |  |  |  | O=C(ON1C(=O)C2CN(Cc3ccc(Br)cc3)CCN2C1=O)N1CCC(CCc2ccc(Cl)cc2)CC1 (centres unmarked) [Compound 13, 7-(4-bromobenzyl)-1,3-dioxohexahydroimidazo[1,5-a]pyrazin-2(3H)-yl 4-(4-chlorophenethyl)piperidine-1-carboxylate] | preferentially inhibited ABHD4 over ABHD3 | ABHD6 | FAAH,; also recorded: ABHD4,; also recorded: ABHD6 | FAAH,; also recorded: ABHD4,; also recorded: ABHD6 | FAAH,; also recorded: ABHD4,; also recorded: MAGL,; also recorded: ABHD6 |
|  |  |  |  |  |  |  |  | 0 | 0 | 100 |  | COc1ccc(N2CCN(C(=O)ON3C(=O)C4CN(C(=O)OC(C)(C)C)CCN4C3=O)CC2)cc1 (centres unmarked) [Compound 21, tert-butyl 2-((4-(4-methoxyphenyl)piperazine-1-carbonyl)oxy)-1,3-dioxohexahydroimidazo[1,5-a]pyrazine-7(1H)-carboxylate] |  |  |  |  |  |
|  |  |  |  |  |  |  |  | 0 | 0 | 100 |  | COc1ccc(N2CCN(C(=O)ON3C(=O)C4CN(C)CCN4C3=O)CC2)cc1 (centres unmarked) [Compound 23, 7-methyl-1,3-dioxohexahydroimidazo[1,5-a]pyrazin-2(3H)-yl 4-(4-methoxyphenyl)piperazine-1-carboxylate] |  |  |  |  |  |
|  |  |  |  |  |  |  |  |  |  |  | good potency and selectivity | COc1ccc(N2CCN(C(=O)ON3C(=O)NC(C(C)C)C3=O)CC2)cc1 (centres unmarked) [MJN193, 4-isopropyl-2,5-dioxoimidazolidin-1-yl 4-(4-methoxyphenyl)piperazine-1-carboxylate] |  |  |  |  |  |
|  | 75 | 100 | 100 |  | 75 | 100 | 100 |  |  |  |  | Cc1ccc(C(=O)N2CCN3C(=O)N(OC(=O)N4CCC(CCc5ccc(Cl)cc5)CC4)C(=O)C3C2)cc1 (centres unmarked) [Compound 8, 7-(4-methylbenzoyl)-1,3-dioxohexahydroimidazo[1,5-a]pyrazin-2(3H)-yl 4-(4-chlorophenethyl)piperidine-1-carboxylate] |  |  | ABHD6 | FAAH,; also recorded: ABHD12,; also recorded: ABHD6 | FAAH,; also recorded: ABHD12,; also recorded: MAGL,; also recorded: ABHD6 |
|  | 90 | 100 | 100 |  | 90 | 100 | 100 |  |  |  |  | COc1ccc(C(=O)N2CCN3C(=O)N(OC(=O)N4CCC(CCc5ccc(Cl)cc5)CC4)C(=O)C3C2)cc1 (centres unmarked) [Compound 11, 7-(4-methoxybenzoyl)-1,3-dioxohexahydroimidazo[1,5-a]pyrazin-2(3H)-yl 4-(4-chlorophenethyl)piperidine-1-carboxylate] |  |  | ABHD6 | FAAH,; also recorded: ABHD12,; also recorded: MAGL,; also recorded: ABHD6 | FAAH,; also recorded: ABHD12,; also recorded: MAGL,; also recorded: ABHD6 |
| 0 | 0 | 0 | 25 | 0 | 0 | 0 | 25 |  |  |  |  | CC(C)(C)OC(=O)N1CCN2C(=O)N(OC(=O)N3CCCCC3)C(=O)C2C1 (centres unmarked) [Compound 14, tert-butyl 1,3-dioxo-2-(piperidine-1-carbonyloxy)hexahydroimidazo[1,5-a]pyrazine-7(1H)-carboxylate] |  | ABHD6 | ABHD6 | ABHD6 | APEH,; also recorded: ABHD6 |

— patent US9981972B2, “N-hydroxy bicyclic hydantoin carbamates as tools for identification of serine hydrolase targets” (ABIDE THERAPEUTICS, INC., priority 2014, dated 2018)
